The results in this text go back to patent publication US12606558B2, “Condensed pyrazole derivatives as inhibitors of SARM1” (Disarm Therapeutics, Inc., priority 2020, dated 2026).

This experiment deals with T1, SARM1 (Homo sapiens, UniProt Q6SZW1).
T1 construct: made in house; host or cells: NRK1-HEK293T cells, transient transfection; clarified lysate used without purification
T1 sequence (Q6SZW1 with tags, fused parts or gaps): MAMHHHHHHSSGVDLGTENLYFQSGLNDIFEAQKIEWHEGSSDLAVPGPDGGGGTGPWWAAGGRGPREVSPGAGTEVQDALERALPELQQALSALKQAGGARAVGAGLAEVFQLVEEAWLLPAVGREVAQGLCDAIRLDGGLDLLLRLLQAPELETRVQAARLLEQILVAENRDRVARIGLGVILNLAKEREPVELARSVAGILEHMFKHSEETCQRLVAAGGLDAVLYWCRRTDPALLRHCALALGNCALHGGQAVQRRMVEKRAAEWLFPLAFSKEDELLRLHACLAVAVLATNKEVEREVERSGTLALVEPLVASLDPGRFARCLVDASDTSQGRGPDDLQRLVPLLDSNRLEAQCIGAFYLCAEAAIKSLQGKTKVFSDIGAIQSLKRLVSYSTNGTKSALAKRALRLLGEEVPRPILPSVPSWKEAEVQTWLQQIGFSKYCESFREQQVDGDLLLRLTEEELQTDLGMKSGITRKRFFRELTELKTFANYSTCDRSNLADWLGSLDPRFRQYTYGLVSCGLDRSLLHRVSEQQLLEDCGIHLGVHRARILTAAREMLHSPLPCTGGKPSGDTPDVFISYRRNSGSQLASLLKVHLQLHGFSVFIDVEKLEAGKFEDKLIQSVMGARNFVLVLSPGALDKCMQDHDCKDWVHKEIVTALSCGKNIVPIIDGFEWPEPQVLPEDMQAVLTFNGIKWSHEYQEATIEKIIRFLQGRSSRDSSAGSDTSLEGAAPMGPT
Kind of experiment: ARM-SAM-TIR SARM1 IC50 assay (NADase activity, NAD+ cleavage). The class given is biochemical. As to conditions: ARM-SAM-TIR lysate 5 μg/mL, 2 h pre-incubation, 5 μM NAD+, 2 hr room temperature, RapidFire mass spectrometry of NAD+ and ADPR. On the procedure: This Example describes an assay of ARM-SAM-TIR NADase activity and use of this assay to measure the efficacy of compounds of Formula I/II to block SARM1 mediated NAD+ cleavage. This assay was optimized in such a way as to characterize the efficacy of the compounds in Formula I/II to inhibit SARM1 activity and to calculate an IC50 value for each compound. This assay makes use of full length SARM1, which encompasses the ARM, SAM and TIR domains.
NRK1-HEK293T cells were seeded onto 150 cm^2 plates at 20×10^6 cells per plate. The next day, the cells were transfected with 15 μg ARM-SAM-TIR expression plasmid, SEQ ID NO: 1.
The cultures were supplemented with 1 mM NR at time of transfection to minimize toxicity from ARM-SAM-TIR overexpression. Forty-eight hours after transfection, cells were harvested, pelleted by centrifugation at 1,000 rpm (Sorvall ST 16R centrifuge, Thermo Fisher), and washed once with cold PBS (0.01 M phosphate buffered saline NaCl 0.138 M; KCl 0.0027 M; pH 7.4). The cells were resuspended in PBS with protease inhibitors (cOmplete™ protease inhibitor cocktail, Roche product #11873580001) and cell lysates were prepared by sonication (Branson Sonifer 450, output=3, 20 episodes of stroke). The lysates were centrifuged (12,000×g for 10 min at 4° C.) to remove cell debris and the supernatants (containing ARM-SAM-TIR protein) were stored at −80° C. for later use in the in vitro ARM-SAM-TIR NADase assay (see below). Protein concentration was determined by the Bicinchoninic (BCA) method and used to normalize lysate concentrations.
The enzymatic assay was performed in a 384-well polypropylene plate in Dulbecco's PBS buffer in a final assay volume of 20 μL. ARM-SAM-TIR lysate with a final concentration of 5 μg/mL was pre-incubated with the respective compound at 1% DMSO final assay concentration over 2 h at room temperature. The reaction was initiated by addition of 5 μM final assay concentration of NAD+ as substrate. After a 2 hr room temperature incubation, the reaction was terminated with 40 μL of stop solution of 7.5% trichloroactetic acid in acetonitrile. The NAD+ and ADPR concentrations were analyzed by a RapidFire High Throughput Mass Spectrometry System (Agilent Technologies, Santa Clara, Calif.) using an API4000 triple quadrupole mass spectrometer (AB Sciex Framingham, Mass.).
The IC50 is the concentration at which inhibition is half-maximal. High values mean a need for much substance, low ones inhibition by little substance. The molecule `N#Cc1ccc(CCC(=O)N2CCCc3c(-c4ccnnc4)n[nH]c32)cc1` [Example 9] came in with an IC50 of under 100 nM.

Regarding `O=C(CCc1cnc(Cl)c(F)c1)N1CCCc2c(-c3ccnnc3)n[nH]c21` [Example 12], the IC50 was under 100 nM.

Molecule `O=C(CCc1ccc(Cl)nc1)N1CCC(O)c2c(-c3ccncc3)n[nH]c21` (centres unmarked) [Example 20] came in with a half-maximal inhibitory concentration (IC50) of 100 to 1000 nM.

For the molecule `O=C(CCc1ccc(Cl)nc1)N1CCCc2c(-c3ccnnc3)n[nH]c21` [Example 10], the IC50 was under 100 nM.

Regarding `O=C(CCc1ccc(Cl)cc1)N1CCCc2c(-c3ccncc3)n[nH]c21` [Example 2], the IC50 is under 100 nM.

Take `O=C(CCc1ccc(Cl)cc1)N1CCOc2c(-c3ccncc3)n[nH]c21` [Example 3]: the IC50 is under 100 nM.

The molecule `O=C1CCN(C(=O)CCc2ccc(Cl)nc2)c2[nH]nc(-c3ccncc3)c21` [Example 18] showed an IC50 of 100 to 1000 nM.

In the case of `O=C(CCc1ccc(Cl)cc1)N1CCC(O)c2c(-c3ccncc3)n[nH]c21` (centres unmarked) [Example 19], the IC50 was under 100 nM.

`O=C(CCc1cnc(Cl)c(F)c1)N1CCCc2c(-c3ccncc3)n[nH]c21` [Example 11] displayed an IC50 of under 100 nM.

Take `O=C(NCc1ccc(Cl)cc1)N1CCCc2c(-c3ccncc3)n[nH]c21` [Example 5]: the IC50 was 1010 to 5000 nM.

In turn, `O=C(CCc1ccc(Cl)cc1)N1CCOc2c(-c3ccnnc3)n[nH]c21` [Example 6] returned an IC50 of under 100 nM.

`N#Cc1ccc(CCC(=O)N2CCCc3c(-c4ccncc4)n[nH]c32)cc1` [Example 8] came in with an IC50 of 100 to 1000 nM.

With `O=C(NCc1ccc(Cl)nc1)N1CCCc2c(-c3ccncc3)n[nH]c21` [Example 4], the concentration for half-maximal inhibition (IC50) is over 10000 nM.

With `O=C1CCN(C(=O)CCc2ccc(Cl)cc2)c2[nH]nc(-c3ccncc3)c21` [Example 17], the IC50 is under 100 nM.

The molecule `N#Cc1ccc(CCC(=O)N2CCCc3c(-c4ccncc4)n[nH]c32)cc1F` [Example 14] gave an IC50 of under 100 nM.

`O=C(CCc1ccc(Cl)cc1)N1CCCc2c(-c3ccnnc3)n[nH]c21` [Example 7] displayed an IC50 of under 100 nM.

The molecule `O=C(CCc1ccc(Cl)nc1)N1CCCc2c(-c3ccncc3)n[nH]c21` [Example 1] had an IC50 of 100 to 1000 nM.

For the molecule `O=C(CCc1ccc(Cl)c(F)c1)N1CCCc2c(-c3ccncc3)n[nH]c21` [Example 13], the IC50 was under 100 nM.

`N#Cc1ccc(CCC(=O)N2CCCc3c(-c4ccnnc4)n[nH]c32)cc1F` [Example 16] displayed an IC50 of under 100 nM.

As for `O=C(CCc1ccc(Cl)c(F)c1)N1CCCc2c(-c3ccnnc3)n[nH]c21` [Example 15], the IC50 is under 100 nM.
